ChEMBL document CHEMBL3784925, “Discovery of a New Inhibitor of Myeloid Differentiation 2 from Cinnamamide Derivatives with Anti-Inflammatory Activity in Sepsis and Acute Lung Injury” (J Med Chem, 2016)
Blank lines part the entries; values can stand above or below the compound they belong to. The source made the active and inactive calls. No cut-off for these calls is given here.

What was measured:
[1] = Cytotoxicity against C57BL/6 mouse primary peritoneal macrophages assessed as reduction in cell viability at 10 uM after 24 hrs by MTT assay; format: cell-based; settings: peritoneal macrophage cell
[2] = target: T1, Lymphocyte antigen 96 (Mus musculus) (UniProt Q9JHF9); assay: Inhibition of MD2/TLR4 complex formation in C57BL/6 mouse primary peritoneal macrophages assessed as reversal of LPS-induced […] at 10 uM preincubated for 30 mins followed by LPS addition measured after 1 hr by DAPI staining based fluorescence microscopic analysis
T1 sequence (whole entry): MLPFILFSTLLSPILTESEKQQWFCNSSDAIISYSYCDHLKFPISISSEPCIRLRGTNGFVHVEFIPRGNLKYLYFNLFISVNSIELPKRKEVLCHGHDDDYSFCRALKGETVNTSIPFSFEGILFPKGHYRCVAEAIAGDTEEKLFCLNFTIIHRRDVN

SMILES: COc1ccc(/C=C/C(=O)NCc2ccc(OC)c(OC)c2)c(OC)c1
Activity [1]: Non-toxic

inhibition [2]: inactive
SMILES: COc1cccc(-c2cc(=O)c3ccccc3o2)c1N

SMILES: COc1cc(/C=C/C(=O)NCc2ccc(OC)c(OC)c2)ccc1O
Activity [1]: Non-toxic

SMILES: COc1ccc(CCNC(=O)/C=C/c2ccc(O)c(OC)c2)cc1
Activity [1]: Non-toxic

SMILES: O=C(/C=C/c1cccc(Cl)c1Cl)NCc1ccccc1
Activity [1]: Non-toxic

SMILES: COc1cc(/C=C/C(=O)NCc2ccccc2)ccc1O
Activity [1]: Non-toxic

SMILES: COc1ccc(/C=C/C(=O)N2CCOCC2)c(OC)c1
Activity [1]: Non-toxic

SMILES: COc1cc(/C=C/C(=O)NCCCCCCNC(=O)/C=C/c2ccc(O)c(OC)c2)ccc1O
Activity [1]: Non-toxic

SMILES: COc1ccc(/C=C/C(=O)NCc2ccccc2)c(OC)c1
Activity [1]: Non-toxic

SMILES: O=C(/C=C/c1cccc(Cl)c1Cl)NCc1ccc(Cl)cc1
Activity [1]: Non-toxic

SMILES: COc1ccc(/C=C/C(=O)NCCCc2ccccc2)c(OC)c1
Activity [1]: Non-toxic

SMILES: O=C(/C=C/c1cccc(Cl)c1Cl)NCCCCCCNC(=O)/C=C/c1cccc(Cl)c1Cl
Activity [1]: Non-toxic

SMILES: COc1cc(/C=C/C(=O)NCCNC(=O)/C=C/c2ccc(O)c(OC)c2)ccc1O
Activity [1]: Non-toxic

SMILES: COc1ccc(/C=C/C(=O)NCCCCCCNC(=O)/C=C/c2ccc(OC)cc2OC)c(OC)c1
Activity [1]: Non-toxic

SMILES: O=C(/C=C/c1cccc(Cl)c1Cl)NCCCc1ccccc1
Activity [1]: Non-toxic

SMILES: COc1ccc(CCNC(=O)/C=C/c2ccc(OC)cc2OC)cc1
Activity [1]: Non-toxic

SMILES: COc1cc(/C=C/C(=O)NCCc2ccccc2)ccc1O
Activity [1]: Non-toxic
